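The compound was tested at five concentrations on cells cultured in 96-well plates, with a 48-hour exposure period. GI50 is the concentration that inhibits growth by half.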 Active and inactive are the calls of the source. No stated cut-off is given here; in the data, active = GI50 up to about 1.1 µM and inactive = higher.
What was measured:
Assay in all cases: NCI-60 cell line screen, 48 h
786-0 = system: 786-0
A498 = system: A498
A549 = system: A549
ACHN = system: ACHN
CAKI-1 = system: CAKI-1
CCRF-CEM = system: CCRF-CEM
COLO 205 = system: COLO 205
DLD-1 = system: DLD-1
DMS-114 = system: DMS-114
DMS-273 = system: DMS-273
EKVX = system: EKVX
HCC 2998 = system: HCC 2998
HCT-116 = system: HCT-116
HCT-15 = system: HCT-15
HL-60 = system: HL-60
HOP-18 = system: HOP-18
HOP-62 = system: HOP-62
HOP-92 = system: HOP-92
HT-29 = system: HT-29
IGROV-1 = system: IGROV-1
K562 = system: K562
KM12 = system: KM12
LOX IMVI = system: LOX IMVI
M14 = system: M14
M19-MEL = system: M19-MEL
MOLT-4 = system: MOLT-4
NCI-H226 = system: NCI-H226
NCI-H460 = system: NCI-H460
OVCAR-3 = system: OVCAR-3
OVCAR-5 = system: OVCAR-5
OVCAR-8 = system: OVCAR-8
RXF 393 = system: RXF 393
RXF 631 = system: RXF 631
SF-268 = system: SF-268
SF-295 = system: SF-295
SF-539 = system: SF-539
SK-MEL-28 = system: SK-MEL-28
SK-MEL-2 = system: SK-MEL-2
SK-MEL-5 = system: SK-MEL-5
SK-OV-3 = system: SK-OV-3
SN12C = system: SN12C
SNB-19 = system: SNB-19
SNB-75 = system: SNB-75
SNB-78 = system: SNB-78
SW-620 = system: SW-620
TK-10 = system: TK-10
U-251 = system: U-251
UACC-62 = system: UACC-62
UO-31 = system: UO-31
KM-20L2 = system: KM-20L2
LXFL 529 = system: LXFL 529
Malme-3M = system: Malme-3M
NCI-H23 = system: NCI-H23
NCI-H522 = system: NCI-H522
OVCAR-4 = system: OVCAR-4
RPMI-8226 = system: RPMI-8226
SR = system: SR
UACC-257 = system: UACC-257

In the case of `CCN(CC)CCNC(=O)c1cccc2cc3ccccc3nc12`, the GI50 (786-0) is reported as 6.15 µM (inactive), the GI50 (A498) is reported as 6.92 µM (inactive) and the GI50 (A549) is reported as 3.56 µM (inactive). For the same compound, the GI50 (ACHN) was 3.45 µM (inactive), the GI50 (CAKI-1) was 4.48 µM (inactive) and the GI50 (CCRF-CEM) was 5.69 µM (inactive). For the same compound, the GI50 (COLO 205) was 4.44 µM (inactive), the GI50 (DLD-1) was 3.57 µM (inactive) and the GI50 (DMS-114) was 5.89 µM (inactive). For the same compound, the GI50 (DMS-273) was 3.95 µM (inactive), the GI50 (EKVX) was 5.73 µM (inactive) and the GI50 (HCC 2998) was 5.89 µM (inactive). For the same compound, the GI50 (HCT-116) was 3.52 µM (inactive), the GI50 (HCT-15) was 4.47 µM and the GI50 (HL-60) was 4.8 µM (inactive). For the same compound, the GI50 (HOP-18) was 15.8 µM (inactive), the GI50 (HOP-62) was 10.4 µM (inactive) and the GI50 (HOP-92) was 4.78 µM (inactive). For the same compound, the GI50 (HT-29) was 3.95 µM (inactive), the GI50 (IGROV-1) was 5.2 µM (inactive) and the GI50 (K562) was 3.72 µM (inactive). For the same compound, the GI50 (KM12) was 8 µM (inactive), the GI50 (LOX IMVI) was 5.57 µM (inactive) and the GI50 (M14) was 5.9 µM (inactive). For the same compound, the GI50 (M19-MEL) was 4.89 µM (inactive), the GI50 (MOLT-4) was 2.96 µM (inactive) and the GI50 (NCI-H226) was 4.18 µM (inactive). The GI50 (NCI-H460) was 2.88 µM (inactive), the GI50 (OVCAR-3) was 11.6 µM (inactive) and the GI50 (OVCAR-5) was 6.21 µM (inactive). The GI50 (OVCAR-8) was 6 µM (inactive), the GI50 (RXF 393) was 3.49 µM (inactive) and the GI50 (RXF 631) was 4.6 µM (inactive). For the same compound, the GI50 (SF-268) was 6.84 µM (inactive), the GI50 (SF-295) was 7.23 µM (inactive) and the GI50 (SF-539) was 4.49 µM (inactive). For the same compound, the GI50 (SK-MEL-28) was 9.71 µM (inactive), the GI50 (SK-MEL-2) was 7.53 µM (inactive) and the GI50 (SK-MEL-5) was 4.52 µM (inactive). The GI50 (SK-OV-3) was 8.93 µM (inactive), the GI50 (SN12C) was 5.18 µM (inactive) and the GI50 (SNB-19) was 7.45 µM (inactive). For the same compound, the GI50 (SNB-75) was 7.71 µM (inactive), the GI50 (SNB-78) was 7.69 µM (inactive) and the GI50 (SW-620) was 3.49 µM (inactive). For the same compound, the GI50 (TK-10) was 4.79 µM (inactive), the GI50 (U-251) was 5.01 µM (inactive) and the GI50 (UACC-62) was 4.79 µM (inactive). For the same compound, the GI50 (UO-31) was 3.45 µM (inactive).
With `CN1C(c2ccccc2)CC(=NO)CC1c1ccccc1` (configuration not stated) the GI50 (786-0) was 97.9 µM (inactive), the GI50 (A498) was 82 µM (inactive) and the GI50 (A549) was 40.9 µM (inactive). The GI50 (ACHN) was 41.4 µM (inactive), the GI50 (CAKI-1) was 48.2 µM (inactive) and the GI50 (CCRF-CEM) was 28.2 µM (inactive). The GI50 (COLO 205) was 20.2 µM (inactive), the GI50 (DLD-1) was 41.8 µM (inactive) and the GI50 (DMS-114) was 25.7 µM (inactive). For the same compound, the GI50 (DMS-273) was 28 µM (inactive), the GI50 (EKVX) was > 100 µM (inactive) and the GI50 (HCC 2998) was 97.5 µM (inactive). The GI50 (HCT-116) was 19.3 µM (inactive), the GI50 (HCT-15) was 37.9 µM and the GI50 (HL-60) was 16.4 µM (inactive). The GI50 (HOP-62) was > 100 µM (inactive), the GI50 (HOP-92) was 92.7 µM (inactive) and the GI50 (HT-29) was 35.9 µM (inactive). The GI50 (IGROV-1) was > 100 µM (inactive), the GI50 (K562) was 29.4 µM (inactive) and the GI50 (KM-20L2) was 54.6 µM (inactive). The GI50 (KM12) was 31.6 µM (inactive), the GI50 (LOX IMVI) was 19.7 µM (inactive) and the GI50 (LXFL 529) was 52.8 µM (inactive). For the same compound, the GI50 (M14) was 43 µM (inactive), the GI50 (M19-MEL) was 37.5 µM (inactive) and the GI50 (MOLT-4) was 19.2 µM (inactive). For the same compound, the GI50 (Malme-3M) was 34.8 µM (inactive), the GI50 (NCI-H226) was 74 µM (inactive) and the GI50 (NCI-H23) was 89.1 µM (inactive). The GI50 (NCI-H460) was 60 µM (inactive), the GI50 (NCI-H522) was 25.6 µM (inactive) and the GI50 (OVCAR-3) was 39.9 µM (inactive). For the same compound, the GI50 (OVCAR-4) was 40.2 µM (inactive), the GI50 (OVCAR-5) was 67.3 µM (inactive) and the GI50 (OVCAR-8) was 47.4 µM (inactive). For the same compound, the GI50 (RPMI-8226) was 24 µM (inactive), the GI50 (RXF 393) was 62.5 µM (inactive) and the GI50 (RXF 631) was 48.8 µM (inactive). The GI50 (SF-268) was 55.7 µM (inactive), the GI50 (SF-295) was 41.5 µM (inactive) and the GI50 (SF-539) was 41.2 µM (inactive). The GI50 (SK-MEL-28) was 91.2 µM (inactive), the GI50 (SK-MEL-2) was 53.5 µM (inactive) and the GI50 (SK-MEL-5) was 38.2 µM (inactive). For the same compound, the GI50 (SK-OV-3) was > 100 µM (inactive), the GI50 (SN12C) was 24.9 µM (inactive) and the GI50 (SNB-19) was > 100 µM (inactive). The GI50 (SNB-75) was 59.7 µM (inactive), the GI50 (SNB-78) was > 100 µM (inactive) and the GI50 (SR) was 26.9 µM (inactive). The GI50 (SW-620) was 48.8 µM (inactive), the GI50 (TK-10) was > 100 µM (inactive) and the GI50 (U-251) was 67.6 µM (inactive). For the same compound, the GI50 (UACC-257) was 55.1 µM (inactive), the GI50 (UACC-62) was 39.8 µM (inactive) and the GI50 (UO-31) was 26.4 µM (inactive).
For `C[N+](C)(C)CC1CCCC(C[N+](C)(C)C)C1O` (configuration not stated), the GI50 (786-0) was > 100 µM (inactive), the GI50 (A498) was > 100 µM (inactive) and the GI50 (A549) was > 100 µM (inactive). For the same compound, the GI50 (ACHN) was > 100 µM (inactive), the GI50 (CAKI-1) was > 100 µM (inactive) and the GI50 (CCRF-CEM) was > 100 µM (inactive). The GI50 (COLO 205) was > 100 µM (inactive), the GI50 (DLD-1) was > 100 µM (inactive) and the GI50 (DMS-114) was > 100 µM (inactive). The GI50 (DMS-273) was > 100 µM (inactive), the GI50 (EKVX) was > 100 µM (inactive) and the GI50 (HCC 2998) was > 100 µM (inactive). For the same compound, the GI50 (HCT-116) was > 100 µM (inactive), the GI50 (HCT-15) was > 100 µM and the GI50 (HL-60) was > 100 µM (inactive). For the same compound, the GI50 (HOP-18) was > 100 µM (inactive), the GI50 (HOP-62) was > 100 µM (inactive) and the GI50 (HOP-92) was > 100 µM (inactive). For the same compound, the GI50 (HT-29) was > 100 µM (inactive), the GI50 (IGROV-1) was > 100 µM (inactive) and the GI50 (K562) was > 100 µM (inactive). The GI50 (KM-20L2) was > 100 µM (inactive), the GI50 (KM12) was > 100 µM (inactive) and the GI50 (LOX IMVI) was > 100 µM (inactive). The GI50 (LXFL 529) was > 100 µM (inactive), the GI50 (M14) was > 100 µM (inactive) and the GI50 (M19-MEL) was > 100 µM (inactive). The GI50 (MOLT-4) was > 100 µM (inactive), the GI50 (Malme-3M) was > 100 µM (inactive) and the GI50 (NCI-H226) was > 100 µM (inactive). The GI50 (NCI-H23) was > 100 µM (inactive), the GI50 (NCI-H460) was > 100 µM (inactive) and the GI50 (NCI-H522) was > 100 µM (inactive). The GI50 (OVCAR-3) was > 100 µM (inactive), the GI50 (OVCAR-4) was > 100 µM (inactive) and the GI50 (OVCAR-5) was > 100 µM (inactive). For the same compound, the GI50 (OVCAR-8) was > 100 µM (inactive), the GI50 (RPMI-8226) was > 100 µM (inactive) and the GI50 (RXF 393) was > 100 µM (inactive). The GI50 (RXF 631) was > 100 µM (inactive), the GI50 (SF-268) was > 100 µM (inactive) and the GI50 (SF-295) was > 100 µM (inactive). For the same compound, the GI50 (SF-539) was > 100 µM (inactive), the GI50 (SK-MEL-28) was > 100 µM (inactive) and the GI50 (SK-MEL-2) was > 100 µM (inactive). The GI50 (SK-MEL-5) was > 100 µM (inactive), the GI50 (SK-OV-3) was > 100 µM (inactive) and the GI50 (SN12C) was > 100 µM (inactive). The GI50 (SNB-75) was > 100 µM (inactive), the GI50 (SNB-78) was > 100 µM (inactive) and the GI50 (SR) was > 100 µM (inactive). The GI50 (SW-620) was > 100 µM (inactive), the GI50 (TK-10) was > 100 µM (inactive) and the GI50 (U-251) was > 100 µM (inactive). The GI50 (UACC-257) was > 100 µM (inactive), the GI50 (UACC-62) was > 100 µM (inactive) and the GI50 (UO-31) was > 100 µM (inactive).
With `CC[C@@]1(O)C[C@H](OC2CC(N(C)C)C(OC3CC(O)C(OC4CCC(=O)C(C)O4)C(C)O3)C(C)O2)c2c(cc3c(c2O)C(=O)c2c(O)cccc2C3=O)[C@H]1C(=O)OC` (some centres not stated) the GI50 (CCRF-CEM) was 0.0229 µM (active), the GI50 (DLD-1) was 0.0238 µM (active) and the GI50 (HL-60) was 0.0231 µM (active). For the same compound, the GI50 (HOP-18) was 0.0458 µM (active), the GI50 (KM-20L2) was 0.0247 µM (active) and the GI50 (LXFL 529) was 0.00776 µM (active). For the same compound, the GI50 (RPMI-8226) was 0.0243 µM (active), the GI50 (RXF 631) was 0.00711 µM (active) and the GI50 (SK-MEL-28) was 0.0443 µM (active).

Reference: ChEMBL document CHEMBL1201862, “PubChem BioAssay data set” (2004)
